What was measured:
[1] = test system: uninephrectomized db/db mice; experiment: Diabetic nephropathy in uninephrectomized db/db mice, 8 week treatment starting 12 weeks after the uninephrectomy; format: in vivo; details: 8 weeks starting 12 weeks after uninephrectomy
Procedure: The experimental protocol is similar to the experimental protocol described above with the exception that the 8 week treatment with Compound A or irbesartan was started not already at 4 weeks after the uninephrectomy, but only 12 weeks after the uninephrectomy (i.e. when the increase of urinary albumin/creatinine ratio (UACR) is already in a much more advanced stage). Roflumilast was not used as a comparator in this experiment.
Compound A (1, 3 and 10 mg/kg, QD) and irbesartan (50 and 100 mg/kg, QD) were suspended in 0.5% methyl cellulose solution and orally administered to mice for 8 weeks starting 12 weeks after the uninephrectomy.
For evaluation of the effects of Compound A, statistical differences between vehicle- and Compound A treated groups were analyzed with one-tailed Williams' test for GHB, PG and BW and one-tailed Shirley-Williams' test for UACR. For irbesartan, statistical differences between vehicle- and irbesartan treated groups were analyzed with one-tailed Williams' test for UACR, GHb, PG and BW. The P-values less than 0.025 were considered statistically significant in one-tailed Williams' test or one-tailed Shirley-Williams' test.

[2] = test system: uninephrectomized db/db mice; experiment: Diabetic nephropathy in uninephrectomized db/db mice, 8 week treatment starting 4 weeks after the uninephrectomy; format: in vivo; details: 8 weeks starting 4 weeks after uninephrectomy
Procedure: Male 5-week-old BKS.Cg-+Lepr^db/+Lepr^db (db/db) mice were purchased from CLEA Japan, Inc. All mice were fed with a standard diet (CE-2, CLEA Japan, Inc.) and tap water ad libitum.
Compound A was obtained from Takeda GmbH, Konstanz, Germany. Irbesartan was purchased from LKT Laboratories, Inc (USA).
In 6 week old male db/db mice an unilateral nephrectomy was performed. Under the anesthesia with isoflurane inhalation, the right kidney was removed from the mice. After 4-week recovery period, blood samples were obtained by the puncture of facial vein and blood level of glycosylated hemoglobin (GHb) was measured by automated HPLC-based GHb analyzer (HLC-723 G8, TOSOH, Japan). After the separation of plasma samples by centrifugation, also plasma levels of glucose (PG) were measured by Autoanalyzer 7180 (Hitachi, Japan). Urine samples were collected for a 8 h time-period using metabolic cages and urine creatinine level was measured by Autoanalyzer 7180. After desaltation of urine samples with PD MiniTrap G-25 column (GE healthcare, UK), urinary levels of albumin were measured by ELISA, and urinary albumin/creatinine ratio (UACR) was calculated.
Compound A (1, 3 and 10 mg/kg, QD), roflumilast (3 mg/kg, QD) and irbesartan (50 mg/kg, QD) were suspended in 0.5% methyl cellulose solution and orally administered to mice for 8 weeks starting 4 weeks after the uninephrectomy.
At the end of the 8 weeks once daily administration blood, plasma and urine samples were obtained according to the same methods as described above. GHb, PG, urinary creatinine and albumin were measured and UACR was calculated. Body weight (BW) was measured every week during the treatment.
For evaluation of the effects of Compound A, statistical differences between vehicle- and Compound A treated groups were analyzed with two-tailed Williams' test for PG and BW and two-tailed Shirley-Williams' test for UACR and GHb. The P-values less than 0.05 were considered statistically significant in two-tailed Williams' test or Shirley-Williams' test.
For roflumilast and irbesartan, statistical differences between vehicle- and compounds-treated groups were analyzed with Student's t-test for GHb, PG and BW and Welch test for UACR. The P-values less than 0.05 were considered statistically significant in Student's t-test and Welch test.

## CCCCC1=NC2(CCCC2)C(=O)N1Cc1ccc(-c2ccccc2-c2nnn[nH]2)cc1 [irbesartan, 2-butyl-3-[p-(o-1H-tetrazol-5-ylphenyl)benzyl]-1,3-diazaspiro[4.4]non-1-en-4-one, reference compound]
[1]; 50 mg/kg QD oral
  effect on urinary albumin/creatinine ratio (UACR): significant suppression on increase in UACR
[1]; 100 mg/kg QD oral
  effect on urinary albumin/creatinine ratio (UACR): significant suppression on increase in UACR
[1]; 50 and 100 mg/kg QD oral
  effect on body weight (BW): Neither Compound A nor Irbesartan affected the body weight
  effect on glucose plasma levels (PG): did not show inhibitory effects
  effect on glycosylated hemoglobin (GHb): did not show inhibitory effects
[2]; 50 mg/kg QD oral
  effect on blood level of glycosylated hemoglobin (GHb): Almost no effect compared to the vehicle group
  effect on increase of urinary albumin/creatinine ratio (UACR): tended to suppress the increase of UACR, but its effect was not statistically significant
  effect on plasma levels of glucose (PG): Almost no effect compared to the vehicle group

## O=C(Nc1c(Cl)cncc1Cl)c1ccc(OC(F)F)c(OCC2CC2)c1 [roflumilast, reference compound]
[2]; 3 mg/kg QD oral
  effect on blood level of glycosylated hemoglobin (GHb): Almost no effect compared to the vehicle group
  effect on increase of urinary albumin/creatinine ratio (UACR): mild and was not statistically significant
  effect on plasma levels of glucose (PG): Almost no effect compared to the vehicle group

Source: patent publication US20200179369A1, “TREATMENT OF DIABETIC NEPHROPATHY” (TAKEDA GMBH, priority 2015, published 2020)
